The text below walks through data of patent US8263651B2, “Use of cis-epoxyeicosatrienoic acids and inhibitors of soluble epoxide hydrolase to treat conditions mediated by PBR, CB2, and NK2 receptors” (The Regents of the University of California, priority 2006, dated 2012).

Entries after “also recorded” stand apart in the source; their conditions may differ. Like-named read-outs stand apart in the source and are kept apart here.

The target in one assay is Dopamine D3 (Homo sapiens, UniProt P35462). Nature of the assay: radio-ligand binding competition, D3. The settings on record: for IC50: displacement of high affinity ligand; for % Inhibition of Control Specific Binding: second round, individual EET isomers, 3 μM.
Sequence of Dopamine D3 (P35462 whole entry): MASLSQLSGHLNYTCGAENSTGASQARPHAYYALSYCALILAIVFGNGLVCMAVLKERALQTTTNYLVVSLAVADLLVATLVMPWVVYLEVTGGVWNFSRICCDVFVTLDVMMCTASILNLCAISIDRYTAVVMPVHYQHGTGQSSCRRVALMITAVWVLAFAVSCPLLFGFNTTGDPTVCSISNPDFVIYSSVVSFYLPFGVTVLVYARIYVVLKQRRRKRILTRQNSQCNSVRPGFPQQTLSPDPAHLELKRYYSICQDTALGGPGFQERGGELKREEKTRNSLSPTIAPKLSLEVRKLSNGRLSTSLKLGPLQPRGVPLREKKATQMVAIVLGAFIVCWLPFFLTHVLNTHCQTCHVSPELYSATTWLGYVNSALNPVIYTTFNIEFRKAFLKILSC
For another assay, the target named is T1, BZD (peripheral) (Rattus norvegicus, UniProt P16257).
T1 construct: containing 0.2 mg of cardiac membrane protein and the radioactive ligand; tissue CEREP (contract assay); host or cells: rat heart ventricular membranes
In words: radio-ligand binding competition, peripheral benzodiazepine receptor ([3H]PK 11195). The settings on record: for IC50: displacement of [3H]PK 11195; for inhibition of binding of [3H]PK 11195 (FIG. 1): increasing concentrations; for % Inhibition of Control Specific Binding: second round, individual EET isomers, 3 μM.

The next assay concerns the target T2, Cannabinoid CB2 (Homo sapiens, UniProt P34972).
T2 construct: host or cells: CHO cells
In words: radio-ligand binding competition, CB2 ([3H]WIN 55212-2). The settings on record: for % Inhibition of Control Specific Binding: individual EET isomers, 3 μM.

Another assay has as its target T3, Neurokinin NK2 (Homo sapiens, UniProt P21452).
T3 sequence (P21452 1-398): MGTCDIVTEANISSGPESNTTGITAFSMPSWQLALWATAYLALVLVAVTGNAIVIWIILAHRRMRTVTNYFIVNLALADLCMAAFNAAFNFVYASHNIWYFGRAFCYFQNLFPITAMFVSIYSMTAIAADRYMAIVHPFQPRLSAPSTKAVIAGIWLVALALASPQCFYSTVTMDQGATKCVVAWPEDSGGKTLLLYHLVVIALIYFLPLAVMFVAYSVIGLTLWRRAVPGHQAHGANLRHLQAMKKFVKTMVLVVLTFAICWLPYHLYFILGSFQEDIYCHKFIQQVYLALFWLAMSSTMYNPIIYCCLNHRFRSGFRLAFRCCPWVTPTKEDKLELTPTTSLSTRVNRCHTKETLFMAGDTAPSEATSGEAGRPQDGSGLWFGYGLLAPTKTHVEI
Nature of the assay: radio-ligand binding competition, NK2. The note with it: for IC50: displacement of high affinity ligand; for % Inhibition of Control Specific Binding: second round, individual EET isomers, 3 μM.

Assay [1] in a line: metabolomic analysis of oxylipids and prostaglandins in LPS-treated animals. The assay is classed as in vivo. The source says: (In FIG. 3A, the bar presenting the results for the metabolite 6-keto-PGF1a for one group of animals exceeded the scale, as shown by a break in the bar and the statement of the result in ng/mL about the bar). FIG. 3A. […] FIG. 3C. […] All three graphs: bars with lines rising from left to right (e.g., in FIG. 3A, the “sum of DHETs”) present results for untreated (naïve) animals, bars with lines falling from left to right present results for animals treated with LPS, bars with cross-hatching present results for the animals treated with LPS and the sEH inhibitor AEPU, and bars with horizontal lines present the results for animals treated with LPS, AEPU, and the steroid synthesis inhibitor aminogluthetimide (“AGL”). The metabolites chosen for study show the effect on different pathways by which arachidonic acid is metabolized. ΣEpOMEs and ΣDiHOMEs are indicators of the P450 pathway, HETEs are an indicator of how much arachidonic acid is going through the 5-lipoxygenase pathway and 6-keto-PGF1a, and PGE2 are indicators of the arachidonic acid metabolized by the cyclooxygenase pathway. 6-keto-PGF1a and TXB2 are stable metabolites of PGI2 and thromboxane A2 which have been implicated in increased risk for stroke and heart attack. HODEs are lipoxygenase-derived fatty acid metabolites.
See, FIG. 3. This means that inhibition of sEH is not only effective against inflammatory pain but also effective in other types of pain that are not necessarily modulated by prostanoid levels. Indeed, non-inflammatory types of pain are known to be not well addressed by COX inhibitors. The levels of EETs and DHETs, however, correlated well with the nociceptive end result.

Assay [2] relates to LPS-elicited thermal hyperalgesia. Nature of the assay: LPS-elicited inflammatory pain model, hindpaw thermal withdrawal latency. The assay is classed as in vivo, rat. The settings on record: for effect on response to LPS administration: agent + LPS, no sEHI (FIG. 2D); for effect on baseline TWL response: agent by itself, no LPS (FIG. 2C); for effect on the antihyperalgesic action of sEHI AEPU: topical, with LPS + AEPU (FIGS. 2A, 2B, 4); for effect on sEHI-elicited analgesia: with LPS + sEHI compound 950, two hours post LPS (FIG. 5). On the procedure:
Inflammatory pain model: The nociception response was measured using the hind paw withdrawal latency test modified after Hargreaves at al., Pain, 32(1):77-88 (1988). Male Sprague-Dowley rats weighing 240-260 g, are individually housed at UC Davis Animal Resource Facility under standard conditions with free access to food and water, and maintained for at least 1 week before the experiments. On the day of the experiments, the animals' basal response is measured and then compounds are topically administered preceding an injection with 10 ug of endotoxin (1Lipopolysaccharide, “LPS”, Sigma-Aldrich, St. Louis, Mo.). Nociceptive response is then measured at 120 minutes post-LPS injection. Compounds are formulated by dissolving them in ethanol and mixing with cream in a ratio of 1:8. Eight animals per group are used. A dose response curve is obtained by administering increasing concentrations of EETs and measuring nociceptive response.
Behavioral nociceptive testing was conducted by assessing thermal hindpaw withdrawal latencies (“TWL”) using a commercial Hargreaves (Hargreaves et al., A new and sensitive method for measuring thermal nociception in cutaneous hyperalgesia. Pain 32:77-88 (1988)) apparatus (IITC Life Science Inc., Woodland Hills, Calif.). Male Sprague-Dawley rats weighing 240-250 g, were individually housed at the UC Davis Animal Resource Facility under standard conditions with free access to food and water, and maintained for at least 1 week before the experiments. On the day of the experiment, the rats were transferred to a quiet room, acclimated for 1 h, and their baseline responses measured. In pilot experiments, the intensity of the thermal stimulus was set to produce a baseline TWL of 7-8 s. Following baseline measurements, rats were first treated with 200 μl of vehicle or compound-formulated cream by topical application to one hind paw. Compounds (including sEHI, steroid synthesis inhibitors, steroid receptor antagonists, and cannabinoid receptor antagonists, as shown in the Figure legends) were formulated by dissolving them in ethanol and mixing with Vanicream® (Pharmaceutical Specialties, Inc., Rochester, Minn.) in a ratio of 1:9. The cream was thoroughly massaged across the entire hind paw surface over a 2 min period. After 1.5 hours rats were treated with 200 μl of sEHI formulated cream. Within 10 min of sEHI application, lipopolysaccharide (“LPS”, 10 μg in 50 μl 0.9% NaCl) was injected subcutaneously into the plantar surface of the treated paw. Immediately following LPS injection, animals were placed in acrylic chambers on a glass platform maintained at a temperature of 30±1° C. for TWL-measurement. During TWL measurement, a beam of radiant heat was focused onto the mid-portion of the plantar surface of the treated hind paw until the rat moved its stimulated hindpaw abruptly away from the heat stimulus. The duration of heat application necessary to elicit a withdrawal was designated as TWL. A maximum stimulus duration of 22 s was imposed to prevent tissue damage. Five TWL measurements were taken at 3-4 min interstimulus intervals for each of the time points following treatment. The three median TWLs were averaged for each animal at each time point.

A further assay deals with CB2 over CB1. The settings on record: cited from earlier work.
Assay [3] has as its system CAR induced local thermal hyperalgesia. Nature of the assay: carrageenan-induced thermal hyperalgesia model. The note with it: topical, 20 hours post 2% carrageenan. It is filed as in vivo. On the procedure:
Using a second distinct inflammatory model, hyperalgesia was induced by intraplantar injection of 2% carrageenan (CAR) and sEH inhibitors were again delivered topically 20 hours post CAR injection.

Setting [4] is: displacement of high affinity ligand, read-out: IC50, CB2.
[5] abbreviates: AGL+AEPU vs AEPU-administered animals.

T2 sequence (P34972 whole entry): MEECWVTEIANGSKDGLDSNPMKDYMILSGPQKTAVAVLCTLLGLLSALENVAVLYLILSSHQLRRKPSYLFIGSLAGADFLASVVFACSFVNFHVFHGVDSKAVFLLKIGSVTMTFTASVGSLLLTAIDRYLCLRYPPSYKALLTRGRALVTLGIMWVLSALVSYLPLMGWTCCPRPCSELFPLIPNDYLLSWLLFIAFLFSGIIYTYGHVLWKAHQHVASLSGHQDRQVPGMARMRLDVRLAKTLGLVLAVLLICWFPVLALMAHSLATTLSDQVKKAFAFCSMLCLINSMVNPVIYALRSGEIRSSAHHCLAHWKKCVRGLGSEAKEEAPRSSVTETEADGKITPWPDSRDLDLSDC

What is called IC50 is the concentration that inhibits the measured activity by half. `CCCCC/C=C\C/C=C\C/C=C\CC1OC1CCCC(=O)OC` (stereo not shown) [5,6 EET-me]: the IC50 on Dopamine D3 is more than 100 µM; at BZD (peripheral) it was 12 µM; at Cannabinoid CB2 (setting [4]), 20 µM; at Neurokinin NK2, 36 µM.

With `CCCCC/C=C\C/C=C\C/C=C\CC1OC1CCCC(=O)O` (stereo not shown) [5,6-EET], the “% Inhibition of Control Specific Binding” value on Dopamine D3 was 18%; on BZD (peripheral), 27%; at Cannabinoid CB2 (second round), 25%; at Neurokinin NK2, 25%. Further, at BZD (peripheral), the “inhibition of binding of [3H]PK 11195 (FIG. 1)” value (“inhibition of binding … (FIG. 1)” for short) is reported as “completely inhibit”.

For `CCCCC/C=C\C/C=C\CC1OC1C/C=C\CCCC(=O)OC` (stereo not shown) [8,9 EET-me], the IC50 at Dopamine D3, on BZD (peripheral), at Cannabinoid CB2 (setting [4]) and at Neurokinin NK2 was more than 100 µM throughout.

Take `CCCCC/C=C\C/C=C\CC1OC1C/C=C\CCCC(=O)O` (stereo not shown) [8,9-EET]: the “% Inhibition of Control Specific Binding” value was 9% at Dopamine D3, 11% on BZD (peripheral), −2% on Cannabinoid CB2 (second round) and 10% at Neurokinin NK2.

In the case of `CCCCC/C=C\CC1OC1C/C=C\C/C=C\CCCC(=O)OC` (stereo not shown) [11,12 EET-me], the IC50 was more than 100 µM on Dopamine D3, 140 µM on BZD (peripheral), more than 100 µM at Cannabinoid CB2 (setting [4]) and more than 100 µM at Neurokinin NK2.

`CCCCC/C=C\C[C@H]1O[C@H]1C/C=C\C/C=C\CCCC(=O)O` [11,12-EET]: the “% Inhibition of Control Specific Binding” value came to 6% at Dopamine D3, 28% on BZD (peripheral), 3% at Cannabinoid CB2 (second round) and 1% on Neurokinin NK2. Moreover, the “inhibition of binding … (FIG. 1)” value at BZD (peripheral) is given as “completely inhibit”.

Turning to `CCCCCC1OC1C/C=C\C/C=C\C/C=C\CCCC(=O)OC` (stereo not shown) [14,15 EET-me], the IC50 was more than 100 µM at Dopamine D3, 12 µM at BZD (peripheral), more than 100 µM on Cannabinoid CB2 (setting [4]) and more than 100 µM at Neurokinin NK2.

Take `CCCCCC1OC1C/C=C\C/C=C\C/C=C\CCCC(=O)O` (stereo not shown) [14,15-EET]: the “% Inhibition of Control Specific Binding” value on Dopamine D3 is 10%; on BZD (peripheral) it was 45%; at Cannabinoid CB2 (second round) it was 5%; at Neurokinin NK2, 8%. Moreover, the “inhibition of binding … (FIG. 1)” value at BZD (peripheral) was “completely inhibit”.

In the case of `CCC1(c2ccc(N)cc2)CCC(=O)NC1=O` (stereo not shown) [AGL], in assay [1] (setting [5]), the “levels of DHETs” value was “increased” and the “levels of EETs” value is listed as “significantly reduced”. The PGE2 levels result in assay [1] (AGL+LPS+AEPU vs AEPU+LPS or LPS only (FIG. 3)) is “significantly lower”. Also, in assay [2], the “effect on response to LPS administration” value is listed as “do not they modify”, the “effect on baseline TWL response” value was “no impact” and the “effect on the antihyperalgesic action of sEHI AEPU” value (“effect … of sEHI AEPU” for short) is reported as “completely blocked; also recorded: clearly hyperalgesic”.

Turning to `Cc1c(C(=O)NN2CCCCC2)nn(-c2ccc(Cl)cc2Cl)c1-c1ccc(I)cc1` [AM251, N-(piperidin-1-yl)-5-(4-iodophenyl)-1-(2,4-dichlorophenyl)-4-methy 1-1H-pyrazole-3-carboxamide], the “effect on sEHI-elicited analgesia” value in assay [2] is listed as “did not block”.

With `COc1ccc(C(=O)c2c(C)n(CCN3CCOCC3)c3cc(I)ccc23)cc1` [AM630, iodopravadoline], the “effect on sEHI-elicited analgesia” value in assay [2] is listed as “completely blocked”.

For the compound `CN1CCCCC1Cn1cc(C(=O)c2cc([N+](=O)[O-])ccc2I)c2ccccc21` (stereo not shown) [AM1241], the “selectivity for CB2 over CB1” value with CB2 over CB1 is 340 fold.

For the compound `CCCCOC(=O)CCCCCCCCCCCNC(=O)NC12CC3CC(CC(C3)C1)C2` [AUDA-be, 12-(3-Adamantan-1-yl-ureido)dodecanoic acid butyl ester], the “effect on CAR induced thermal hyperalgesia” value in assay [3] is given as “blocked CAR induced local thermal hyperalgesia effectively; also recorded: effective therapeutically in reversing thermal hyperalgesia”. For the same compound, the “attenuation of LPS-elicited thermal hyperalgesia” value in assay [2] (topical administration) was “prophylactic effect”.

Take `CC(C)(C)NC(=O)[C@H]1CC[C@H]2[C@@H]3CC[C@H]4NC(=O)C=C[C@]4(C)[C@H]3CC[C@]12C` [Finasteride]: in assay [2], the “effect on response to LPS administration” value is “do not they modify”, the “effect on baseline TWL response” value is on record as “no impact” and the “effect … of sEHI AEPU” value is “blocked”.

Consider `Cc1c(C(=O)c2cccc3ccccc23)c2cccc3c2n1C(CN1CCOCC1)CC3=O` (stereo not shown) [WIN55212-2, 4,5-dihydro-2-methyl-4(4-morpholinylmethyl)-1-(1-naphthalenylcarbonyl)-6H-pyrrolo[3,2,1ij]quinolin-6-one, reference compound], for which the IC50 at Cannabinoid CB2 (reference compound, first round, read-out: IC50 Ref (affinity of reference compound)) worked out at 0.0076 µM; at Cannabinoid CB2 (reference compound, second round, read-out: IC50 Ref), 0.0027 µM.

As to `CC#C[C@]1(O)CC[C@H]2[C@@H]3CCC4=CC(=O)CCC4=C3[C@@H](c3ccc(N(C)C)cc3)C[C@@]21C` [mifepristone], the “effect … of sEHI AEPU” value in assay [2] is on record as “did not have any impact”.

Consider `CC1(C)NC(=O)N(c2ccc([N+](=O)[O-])c(C(F)(F)F)c2)C1=O` [nilutamide], for which the “effect … of sEHI AEPU” value in assay [2] is “did not have any impact”.

For the compound `CC(=O)S[C@@H]1CC2=CC(=O)CC[C@]2(C)[C@H]2CC[C@@]3(C)[C@@H](CC[C@@]34CCC(=O)O4)[C@H]12` [spironoloactone], the “effect … of sEHI AEPU” value in assay [2] is on record as “did not have any impact”.

In the case of `CC/C(=C(\c1ccccc1)c1ccc(OCCN(C)C)cc1)c1ccccc1` [tamoxifen], the “effect … of sEHI AEPU” value in assay [2] is reported as “did not have any impact”.
